Test results as given in patent US4317775A (Hoffmann-La Roche Inc., priority 1980, dated 1982).
Counter-ions that a name gives are not always drawn.

How the values were obtained:
Streptococcus pyogenes = assay: In vitro activity (MIC/MBC), Streptococcus pyogenes; type: cell-based; details: for MBC: read-out: Minimum Inhibitory Concentration (MBC); for MIC: read-out: Minimum Inhibitory Concentration (MIC)
Description: (§1) MIC is the Minimum Inhibitory Concentration. MBC is the Minimum Bactericidal Concentration.
(§2) Results reported in Table 3(a) are reported as MIC defined above and results reported in Table 3(b) are reported as MBC defined above.

[1] = system: Streptococcus pneumoniae I; assay: In vitro activity (MIC/MBC), Streptococcus pneumoniae I; type: cell-based
Description: as §1, §2

Staphylococcus aureus = assay: In vitro activity (MIC/MBC), Staphylococcus aureus; type: cell-based; details: for MBC: read-out: Minimum Inhibitory Concentration (MBC); for MIC: read-out: Minimum Inhibitory Concentration (MIC)
Description: as §1, §2

Escherichia coli = assay: In vitro activity (MIC/MBC), Escherichia coli; type: cell-based; details: for MBC: read-out: Minimum Inhibitory Concentration (MBC); for MIC: read-out: Minimum Inhibitory Concentration (MIC)
Description: as §1, §2

Klebsiella pneumoniae = assay: In vitro activity (MIC/MBC), Klebsiella pneumoniae; type: cell-based; details: for MBC: read-out: Minimum Inhibitory Concentration (MBC); for MIC: read-out: Minimum Inhibitory Concentration (MIC)
Description: as §1, §2

[2] = system: Salmonella schottmuelleri; assay: In vitro activity (MIC/MBC), Salmonella schottmuelleri; type: cell-based
Description: as §1, §2

Salmonella typhosa = assay: In vitro activity (MIC/MBC), Salmonella typhosa; type: cell-based; details: Salmonella enterica
Description: as §1, §2

S. pyogenes = assay: In vivo activity against systemic infection in mice, S. pyogenes
Description: (§3) The PD50 is the protective dose for 50% of the animals treated against a challenge organism.

S. pneumoniae I = assay: In vivo activity against systemic infection in mice, S. pneumoniae I
Description: as §3

E. coli = assay: In vivo activity against systemic infection in mice, E. coli; details: in mg/kg
Description: as §3

K. pneumoniae = assay: In vivo activity against systemic infection in mice, K. pneumoniae; details: in mg/kg
Description: as §3

S. schottmuelleri = assay: In vivo activity against systemic infection in mice, S. schottmuelleri
Description: as §3

S. typhosa = assay: In vivo activity against systemic infection in mice, S. typhosa
Description: as §3

in vivo = details: mouse
[3] = system: Streptococcus pneumonia II; assay: In vitro activity (MIC/MBC), Streptococcus pneumonia II; type: cell-based; details: Streptococcus pneumoniae
Description: as §1, §2

S. aureus = assay: In vivo activity against systemic infection in mice, S. aureus; details: in mg/kg
Description: as §3

S. pneumoniae II = assay: In vivo activity against systemic infection in mice, S. pneumoniae II
Description: as §3

P. mirabilis = assay: In vivo activity against systemic infection in mice, P. mirabilis; details: in mg/kg
Description: as §3

Proteus vulgari = assay: In vitro activity (MIC/MBC), Proteus vulgari; type: cell-based
Description: as §1, §2

P. aeruginosa = assay: In vivo activity against systemic infection in mice, P. aeruginosa
Description: as §3

[4] = MBC, read-out: Minimum Inhibitory Concentration (MBC)
[5] = read-out: Minimum Inhibitory Concentration (MIC)

| Structure (SMILES) | MBC (Streptococcus pyogenes) [µg/mL] | MIC (Streptococcus pyogenes) [µg/mL] | MBC (Staphylococcus aureus) [µg/mL] | MIC (Staphylococcus aureus) [µg/mL] | MBC (Escherichia coli) [µg/mL] | MIC (Escherichia coli) [µg/mL] | MBC (Klebsiella pneumoniae) [µg/mL] | MIC (Klebsiella pneumoniae) [µg/mL] | PD50 (S. pyogenes; oral) [mg/kg] | PD50 (S. pyogenes; subcutaneous) [mg/kg] | PD50 (S. pneumoniae I; oral) [mg/kg] | PD50 (S. pneumoniae I; subcutaneous) [mg/kg] | PD50 (E. coli; oral) | PD50 (E. coli; subcutaneous) | PD50 (K. pneumoniae; oral) | PD50 (K. pneumoniae; subcutaneous) | LD50 (in vivo; ip) [mg/kg] | LD50 (in vivo; po) [mg/kg] | LD50 (in vivo; sc) [mg/kg] | PD50 (S. pneumoniae II; oral) [mg/kg] | also measured |
| --- | --- | --- | --- | --- | --- | --- | --- | --- | --- | --- | --- | --- | --- | --- | --- | --- | --- | --- | --- | --- | --- |
| CC1(C)S[C@@H]2[C@H](NC(=O)[C@H](NC3CCCO3)c3ccc(O)cc3)C(=O)N2[C@H]1C(=O)O (relative stereo) [Compound I, {2S-[2α,5α,6β(S*)]}-6-{[2-tetrahydrofuranylamino(4-hydroxyphenyl)acetyl]amino}-3,3-dimethyl-7-oxo-4-thia-1-azabicyclo[3.2.0]heptane-2-carboxylic acid sodium salt] | 2.84 | 0.022 | 0.177 | 0.177 | 5.69 | 5.69 | 0.71 | 0.71 | 3.8 | 7 | 1.5 | 0.7 | 23.8 | 8.2 | 9.9 | 3.8 | 3220 | 9100 | 4550 |  | MBC [1, 4]: 0.022 µg/mL; MIC [1, 5]: 0.022 µg/mL; MBC ([2]; MBC, Salmonella schottmuelleri, read-out: Minimum Inhibitory Concentration (MBC)): 1.42 µg/mL; MIC ([2]; Salmonella, read-out: Minimum Inhibitory Concentration (MIC)): 0.71 µg/mL; MBC (Salmonella typhosa; read-out: Minimum Inhibitory Concentration (MBC), MBC, Salmonella typhosa): 0.35 µg/mL; MIC (Salmonella typhosa; read-out: Minimum Inhibitory Concentration (MIC), Salmonella typhosa): 0.35 µg/mL; PD50 (S. schottmuelleri; oral): 5.4 mg/kg; PD50 (S. schottmuelleri; subcutaneous): 2.4 mg/kg; PD50 (S. typhosa; oral): 8 mg/kg; PD50 (S. typhosa; subcutaneous): 7.3 mg/kg |
| CCC1CC(F)C(N(C2OC(CC)CC2F)[C@@H](C(=O)N[C@@H]2C(=O)N3[C@@H]2SC(C)(C)[C@@H]3C(=O)O)c2ccc(O)cc2)O1 (relative stereo) [Compound IV, {2S-[2α,5α,6β(S*)]}-6-{bis[5-ethyl-3-fluoro-2-tetrahydrofuranylamino-(4-hydrophenyl)-acetyl]amino}-3,3-dimethyl-7-oxo-4-thia-1-azabicyclo-[3.2.0]heptane-2-carboxylic acid sodium salt] | > 0.218 | 0.027 | 0.055 | 0.055 | 3.5 | 3.5 | 0.437 | 0.218 | 6 | 4.4 | 0.7 | 0.9 | 22.1 | 10.4 | 4.8 | 2.4 | 3520 | 3960 | 2800 | 0.7 | MBC [3, 4]: 0.027 µg/mL; MIC [3, 5]: 0.013 µg/mL; PD50 (S. aureus; oral): 1.2; PD50 (S. aureus; subcutaneous): 0.34; PD50 (S. pneumoniae II; subcutaneous): 0.5 mg/kg; PD50 (P. mirabilis; oral): 1.6; PD50 (P. mirabilis; subcutaneous): 0.4 |
| CC1(C)S[C@@H]2[C@H](NC(=O)[C@H](NC3CCCS3)c3ccc(O)cc3)C(=O)N2[C@H]1C(=O)O (relative stereo) [Compound III, {2S-[2α,5α,6β(S*)]}-6-{[tetrahydro-2-thienylamino-(4-hydroxyphenyl)acetyl]amino}-3,3-dimethyl-7-oxo-4-thia-1-azabicyclo[3.2.0]heptane-2-carboxylic acid sodium salt] | > 8.88 | 0.554 | 0.138 | 0.138 | 4.44 | 4.44 | 1.11 | 0.554 | 6.3 | 4.1 | 4.7 | 2.5 | 18.7 | 19.4 | 15.5 | 5.3 | 668 | 558 | 598 | 3.2 | MBC (Proteus vulgari; [4]): 0.554 µg/mL; MIC (Proteus vulgari; [5]): 0.554 µg/mL; PD50 (S. pneumoniae II; subcutaneous): 3.2 mg/kg; PD50 (P. mirabilis; oral): 3.8; PD50 (P. mirabilis; subcutaneous): 2.5; PD50 (P. aeruginosa; oral): > 142 mg/kg; PD50 (P. aeruginosa; subcutaneous): > 142 mg/kg |
